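96-well plates; 48 h exposure; 5 concentrations. Endpoints by linear interpolation between flanking doses. Not reached: highest tested concentration assigned. GI50 = concentration required for 50% inhibition of growth. TGI is the concentration that stops growth completely.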
How the values were obtained:
Assay in all cases: NCI anticancer screen, dose series, 48 h
[1] = system: M14 melanoma
[2] = system: T-47D breast
[3] = system: BT-549 breast
[4] = system: HT29 colon
[5] = system: SK-MEL-2 melanoma
[6] = system: SW-620 colon
[7] = system: HOP-62 NSCLC
[8] = system: CCRF-CEM leukemia
[9] = system: MALME-3M melanoma
[10] = system: MDA-MB-435
[11] = system: OVCAR-8 ovarian
[12] = system: MOLT-4 leukemia
[13] = system: SF-295 CNS
[14] = system: SK-OV-3 ovarian
[15] = system: HS 578T breast
[16] = system: HL-60(TB) leukemia
[17] = system: TK-10 renal
[18] = system: UACC-257 melanoma
[19] = system: IGROV1 ovarian
[20] = system: NCI-H522 lung
[21] = system: A549 NSCLC
[22] = system: SK-MEL-5 melanoma
[23] = system: HCT-15 colon
[24] = system: MCF7 breast
[25] = system: NCI/ADR-RES ovarian
[26] = system: 786-0 renal
[27] = system: DU-145 prostate
[28] = system: UO-31 renal
[29] = system: NCI-H460 lung
[30] = system: RPMI-8226 leukemia
[31] = system: SNB-75 CNS
[32] = system: A498 renal
[33] = system: OVCAR-4 ovarian
[34] = system: EKVX NSCLC
[35] = system: COLO 205 colon
[36] = system: CAKI-1 renal
[37] = system: KM12 colon
[38] = system: ACHN renal
[39] = system: PC-3 prostate
[40] = system: LOX IMVI melanoma
[41] = system: MDA-MB-231 breast
[42] = system: OVCAR-5 ovarian
[43] = system: RXF 393 renal
[44] = system: HCT-116 colon
[45] = system: NCI-H23 lung
[46] = system: SN12C renal
[47] = system: SR leukemia
[48] = system: SF-539 CNS
[49] = system: NCI-H226 lung
[50] = system: UACC-62 melanoma
[51] = system: SF-268 CNS
[52] = system: SK-MEL-28 melanoma
[53] = system: HOP-92 NSCLC
[54] = system: SNB-19 CNS
[55] = system: K-562 leukemia
[56] = system: U251 CNS
[57] = system: HCC-2998 colon

CC(Nc1c(C#N)cnc2ccc(-c3cnc(N)nc3)cc12)c1ccccc1 (stereo not drawn)
GI50 [1]: 1560 nM
TGI [1]: 11200 nM
GI50 [2]: 446 nM
GI50 [3]: 410 nM
TGI [3]: 4510 nM
GI50 [4]: 1630 nM
TGI [4]: 13900 nM
GI50 [5]: 1120 nM
TGI [5]: 2950 nM
GI50 [6]: 2620 nM
TGI [6]: 12200 nM
GI50 [7]: 1090 nM
TGI [7]: 9820 nM
GI50 [8]: 1000 nM
TGI [8]: 40200 nM
GI50 [9]: 527 nM
TGI [9]: 3790 nM
GI50 [10]: 1670 nM
TGI [10]: 9570 nM
GI50 [11]: 1720 nM
TGI [11]: 11600 nM
GI50 [12]: 870 nM
TGI [12]: 6140 nM
GI50 [13]: 1080 nM
TGI [13]: > 23100 nM
GI50 [14]: 1210 nM
TGI [14]: 5720 nM
GI50 [15]: 422 nM
TGI [15]: 2840 nM
GI50 [16]: 2460 nM
TGI [16]: > 39500 nM
GI50 [17]: 206 nM
TGI [17]: 1860 nM
GI50 [18]: 2110 nM
TGI [18]: 10500 nM
GI50 [19]: 374 nM
TGI [19]: 2400 nM
GI50 [20]: 2200 nM
TGI [20]: 10500 nM
GI50 [21]: 1030 nM
TGI [21]: 11700 nM
GI50 [22]: 1520 nM
TGI [22]: 3090 nM
GI50 [23]: 1240 nM
TGI [23]: > 38600 nM
GI50 [24]: 640 nM
TGI [24]: > 35300 nM
GI50 [25]: 2340 nM
TGI [25]: 28300 nM
GI50 [26]: 1360 nM
TGI [26]: 10200 nM
GI50 [27]: 796 nM
TGI [27]: 13300 nM
GI50 [28]: 252 nM
TGI [28]: 5840 nM
GI50 [29]: 987 nM
TGI [29]: 11600 nM
GI50 [30]: 382 nM
TGI [30]: 2960 nM
GI50 [31]: 258 nM
TGI [31]: 2450 nM
GI50 [32]: 199 nM
TGI [32]: 1040 nM
GI50 [33]: 527 nM
TGI [33]: 4760 nM
GI50 [34]: 857 nM
TGI [34]: > 23800 nM
GI50 [35]: 1780 nM
TGI [35]: 6820 nM
GI50 [36]: 441 nM
TGI [36]: 4280 nM
GI50 [37]: 1750 nM
TGI [37]: 8640 nM
GI50 [38]: 785 nM
TGI [38]: 13200 nM
GI50 [39]: 720 nM
TGI [39]: 10600 nM
GI50 [40]: 915 nM
TGI [40]: 5850 nM
GI50 [41]: 850 nM
TGI [41]: 16800 nM
GI50 [42]: 787 nM
TGI [42]: 13600 nM
GI50 [43]: 559 nM
TGI [43]: 3900 nM
GI50 [44]: 1710 nM
TGI [44]: 5930 nM
GI50 [45]: 1700 nM
TGI [45]: 11000 nM
GI50 [46]: 765 nM
TGI [46]: 14800 nM
GI50 [47]: 741 nM
TGI [47]: > 43400 nM
GI50 [48]: 1310 nM
TGI [48]: 5980 nM
GI50 [49]: 1530 nM
TGI [49]: 16600 nM
GI50 [50]: 1080 nM
TGI [50]: 4530 nM
GI50 [51]: 1240 nM
TGI [51]: 8790 nM
GI50 [52]: 1590 nM
TGI [52]: 8970 nM
GI50 [53]: 138 nM
TGI [53]: 827 nM
GI50 [54]: 1590 nM
TGI [54]: 20000 nM
GI50 [55]: 2160 nM
TGI [55]: > 100000 nM
GI50 [56]: 1550 nM
TGI [56]: 11200 nM
GI50 [57]: 2000 nM
TGI [57]: 13600 nM
